In patent US20230398130A1, “METHODS AND COMPOSITIONS FOR DIFFERENTIATING STEM CELLS” (Massachusetts Institute of Technology, priority 2020, published 2023):

Experiments:
ISC-enriched organoids [1] = test: Primary screen, 384-well 2.5-D organoid differentiation (ENR+CD, 6 days): basal lysozyme secretion (LYZ.NS); assay type: cell-based, murine; settings: for Dose.FC.LYZ.NS / Z.LYZ.NS: primary screen; for Dose.FC.LYZ.NS: ENR+CD 6 days, FC vs plate median; for Z.LYZ.NS: standard z score of FC
Source text: (§1) High-throughput screening.

ISC-enriched organoids [2] = test: Primary screen, 384-well 2.5-D organoid differentiation (ENR+CD, 6 days): carbachol-induced lysozyme secretion (LYZ.S); assay type: cell-based, murine; settings: for Dose.FC.LYZ.S: primary screen, ENR+CD 6 days, FC vs plate median
Source text: as §1

ISC-enriched organoids [3] = test: Primary screen, 384-well 2.5-D organoid differentiation (ENR+CD, 6 days, Target Selective Inhibitor Library, vs whole-plate median): ATP (CellTiter-Glo 3D, CTG); settings: for Dose.FC.CTG / Z.CTG: primary screen; for Dose.FC.CTG: ENR+CD 6 days, FC vs plate median; for Z.CTG: standard z score of FC
[4] = dose 0.08 uM (1st of 4 lines per treatment; dose not printed in this part)
[5] = dose 0.40 uM (2nd of 4 lines per treatment; dose not printed in this part)
[6] = dose 2.00 uM (3rd of 4 lines per treatment; dose not printed in this part)
[7] = dose 10.00 uM (4th of 4 lines per treatment; dose not printed in this part)

Row | Structure (SMILES) | SSMD.LYZ.NS_Rep (strictly standardized mean difference) (ISC-enriched organoids [1]; [4]) | SSMD.LYZ.NS_Rep (strictly standardized mean difference) (ISC-enriched organoids [1]; [5]) | SSMD.LYZ.NS_Rep (strictly standardized mean difference) (ISC-enriched organoids [1]; [6]) | SSMD.LYZ.NS_Rep (strictly standardized mean difference) (ISC-enriched organoids [1]; [7]) | Dose.FC.LYZ.NS (ISC-enriched organoids [1]; dose 0.08 uM) | Z.LYZ.NS (ISC-enriched organoids [1]; dose 0.08 uM) | Dose.FC.LYZ.NS (ISC-enriched organoids [1]; dose 0.40 uM) | Z.LYZ.NS (ISC-enriched organoids [1]; dose 0.40 uM) | Dose.FC.LYZ.NS (ISC-enriched organoids [1]; dose 2.00 uM) | Z.LYZ.NS (ISC-enriched organoids [1]; dose 2.00 uM) | Dose.FC.LYZ.NS (ISC-enriched organoids [1]; dose 10.00 uM) | Z.LYZ.NS (ISC-enriched organoids [1]; dose 10.00 uM) | SSMD.LYZ.S_Rep (strictly standardized mean difference) (ISC-enriched organoids [2]; [4]) | Z.LYZ.S (standard z score) (ISC-enriched organoids [2]; [4]) | SSMD.LYZ.S_Rep (strictly standardized mean difference) (ISC-enriched organoids [2]; [5]) | Z.LYZ.S (standard z score) (ISC-enriched organoids [2]; [5]) | SSMD.LYZ.S_Rep (strictly standardized mean difference) (ISC-enriched organoids [2]; [6]) | Z.LYZ.S (standard z score) (ISC-enriched organoids [2]; [6]) | SSMD.LYZ.S_Rep (strictly standardized mean difference) (ISC-enriched organoids [2]; [7]) | Z.LYZ.S (standard z score) (ISC-enriched organoids [2]; [7]) | further results
1 | CC(C)N(CC[C@H](c1ccccc1)c1cc(CO)ccc1O)C(C)C [5-hydroxymethyl Tolterodine (PNU 200577, 5-HMT, 5-HM)] | 0.915 | 0.760 | 0.947 | 0.223 | 0.184 log 2 fold change | 1.599 | 0.076 log 2 fold change | 0.665 | 0.154 log 2 fold change | 1.344 | 0.034 log 2 fold change | 0.293 | 0.460 | 0.417 | 0.266 | 0.231 | 0.174 | 0.152 | −0.042 | −0.044 | Dose.FC.LYZ.S (ISC-enriched organoids [2]; dose 0.08 uM): 0.065 log 2 fold change; Dose.FC.LYZ.S (ISC-enriched organoids [2]; dose 0.40 uM): 0.036 log 2 fold change; Dose.FC.LYZ.S (ISC-enriched organoids [2]; dose 2.00 uM): 0.023 log 2 fold change; Dose.FC.LYZ.S (ISC-enriched organoids [2]; dose 10.00 uM): −0.007 log 2 fold change; SSMD.CTG_Rep (strictly standardized mean difference) (ISC-enriched organoids [3]; [4]): −0.118; SSMD.CTG_Rep (strictly standardized mean difference) (ISC-enriched organoids [3]; [5]): 0.291; SSMD.CTG_Rep (strictly standardized mean difference) (ISC-enriched organoids [3]; [6]): 0.114; SSMD.CTG_Rep (strictly standardized mean difference) (ISC-enriched organoids [3]; [7]): 0.061; Dose.FC.CTG (ISC-enriched organoids [3]; dose 0.08 uM): −0.062 log 2 fold change; Z.CTG (ISC-enriched organoids [3]; dose 0.08 uM): −0.149; Dose.FC.CTG (ISC-enriched organoids [3]; dose 0.40 uM): 0.087 log 2 fold change; Z.CTG (ISC-enriched organoids [3]; dose 0.40 uM): 0.207; Dose.FC.CTG (ISC-enriched organoids [3]; dose 2.00 uM): 0.034 log 2 fold change; Z.CTG (ISC-enriched organoids [3]; dose 2.00 uM): 0.082; Dose.FC.CTG (ISC-enriched organoids [3]; dose 10.00 uM): 0.017 log 2 fold change; Z.CTG (ISC-enriched organoids [3]; dose 10.00 uM): 0.040
2 | C=CCNC1=C2C[C@@H](C)C[C@H](OC)[C@H](O)[C@@H](C)/C=C(\C)[C@H](OC(N)=O)[C@@H](OC)/C=C\C=C(/C)C(=O)NC(=CC1=O)C2=O [17-AAG (Tanespimycin)] | −1.180 | −1.186 | −1.053 | −1.183 | −0.193 log 2 fold change | −1.682 | −0.205 log 2 fold change | −1.786 | −0.142 log 2 fold change | −1.239 | −0.187 log 2 fold change | −1.631 | −1.387 | −1.826 | −1.428 | −2.199 | −1.462 | −2.219 | −1.655 | −1.975 | Dose.FC.LYZ.S (ISC-enriched organoids [2]; dose 0.08 uM): −0.282 log 2 fold change; Dose.FC.LYZ.S (ISC-enriched organoids [2]; dose 0.40 uM): −0.340 log 2 fold change; Dose.FC.LYZ.S (ISC-enriched organoids [2]; dose 2.00 uM): −0.343 log 2 fold change; Dose.FC.LYZ.S (ISC-enriched organoids [2]; dose 10.00 uM): −0.306 log 2 fold change; SSMD.CTG_Rep (strictly standardized mean difference) (ISC-enriched organoids [3]; [4]): −0.926; SSMD.CTG_Rep (strictly standardized mean difference) (ISC-enriched organoids [3]; [5]): −1.023; SSMD.CTG_Rep (strictly standardized mean difference) (ISC-enriched organoids [3]; [6]): −1.783; SSMD.CTG_Rep (strictly standardized mean difference) (ISC-enriched organoids [3]; [7]): −1.348; Dose.FC.CTG (ISC-enriched organoids [3]; dose 0.08 uM): −1.012 log 2 fold change; Z.CTG (ISC-enriched organoids [3]; dose 0.08 uM): −2.418; Dose.FC.CTG (ISC-enriched organoids [3]; dose 0.40 uM): −1.262 log 2 fold change; Z.CTG (ISC-enriched organoids [3]; dose 0.40 uM): −3.015; Dose.FC.CTG (ISC-enriched organoids [3]; dose 2.00 uM): −1.459 log 2 fold change; Z.CTG (ISC-enriched organoids [3]; dose 2.00 uM): −3.486; Dose.FC.CTG (ISC-enriched organoids [3]; dose 10.00 uM): −1.446 log 2 fold change; Z.CTG (ISC-enriched organoids [3]; dose 10.00 uM): −3.454
3 | CN1CCc2cc3c(cc2[C@H]1[C@@H]1OC(=O)c2c1ccc1c2OCO1)OCO3 [(+)-Bicuculline] | 0.481 | 0.106 | 0.276 | 0.175 | 0.092 log 2 fold change | 0.805 | 0.013 log 2 fold change | 0.116 | 0.031 log 2 fold change | 0.270 | 0.020 log 2 fold change | 0.176 | 0.545 | 1.005 | 0.216 | 0.221 | −0.164 | −0.169 | 0.264 | 0.465 | Dose.FC.LYZ.S (ISC-enriched organoids [2]; dose 0.08 uM): 0.155 log 2 fold change; Dose.FC.LYZ.S (ISC-enriched organoids [2]; dose 0.40 uM): 0.034 log 2 fold change; Dose.FC.LYZ.S (ISC-enriched organoids [2]; dose 2.00 uM): −0.026 log 2 fold change; Dose.FC.LYZ.S (ISC-enriched organoids [2]; dose 10.00 uM): 0.072 log 2 fold change; SSMD.CTG_Rep (strictly standardized mean difference) (ISC-enriched organoids [3]; [4]): 0.472; SSMD.CTG_Rep (strictly standardized mean difference) (ISC-enriched organoids [3]; [5]): −0.078; SSMD.CTG_Rep (strictly standardized mean difference) (ISC-enriched organoids [3]; [6]): −0.237; SSMD.CTG_Rep (strictly standardized mean difference) (ISC-enriched organoids [3]; [7]): −0.405; Dose.FC.CTG (ISC-enriched organoids [3]; dose 0.08 uM): 0.318 log 2 fold change; Z.CTG (ISC-enriched organoids [3]; dose 0.08 uM): 0.760; Dose.FC.CTG (ISC-enriched organoids [3]; dose 0.40 uM): −0.029 log 2 fold change; Z.CTG (ISC-enriched organoids [3]; dose 0.40 uM): −0.069; Dose.FC.CTG (ISC-enriched organoids [3]; dose 2.00 uM): −0.166 log 2 fold change; Z.CTG (ISC-enriched organoids [3]; dose 2.00 uM): −0.396; Dose.FC.CTG (ISC-enriched organoids [3]; dose 10.00 uM): −0.132 log 2 fold change; Z.CTG (ISC-enriched organoids [3]; dose 10.00 uM): −0.315
